From patent publication US12612412B2, “Antiviral heterocyclic compounds” (Enanta Pharmaceuticals, Inc., priority 2021, dated 2026)

Tests used:
[1] = system: genotype A, "Long" strain RSV; assay: RSV-A assay (CPE protection in Hep-2 cells, ATPlite readout); format: cell-based, Human respiratory syncytial virus (HRSV); details: human respiratory syncytial virus, genotype A “Long” strain RSV, MOI 0.1, CPE protection, read-out: Human RSV-A (“Long”)
In short: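 Protection from RSV-induced cytopathic effect measured by ATP content (ATPlite) after 5-day culture. Infection used genotype A Long virus at MOI 0.1 on 8,000 Hep-2 cells per well, with compound serially diluted 2-fold; values are EC50.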

[2] = system: HMPV clinical isolate TN/1501/A1; assay: HMPV antiviral assay Method-B (clinical isolate TN/1501/A1 in LLC-MK2 cells, ATP-Lite readout); format: cell-based, Human metapneumovirus (HMPV); details: human metapneumovirus, LLC-MK2, 144 h, hMPV WT1501 (clinical isolate TN/1501/A1), 6 days
In short: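 EC50 derived by four-parameter logistic fit of percent cell health, measured by ATP-Lite luminescence and normalised to virus-only and uninfected-cell controls. Compounds run in duplicate from 10 μM top, 3-fold, 10 points. Infection: LLC-MK2 cells, MOI 0.014, 2 μg/mL final TPCK-trypsin, serum-free, 6 days at 37° C.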

Row | Compound | EC50 [1] [nM] | EC50 [2] [nM]
1 | C[C@]1(C(N)=O)COc2c1cc([C@@](O)(CNC(=O)c1cc(OCCF)c3nn(C4(F)CC4)cc3c1)C(F)(F)F)nc2-c1cc(Cl)c(F)cc1F [Example 618] | < 200 | < 500
2 | C[C@]1(C(N)=O)COc2c1cc([C@@](O)(CNC(=O)c1cc(Cl)c3nn(C4CC4)cc3c1)C(F)(F)F)nc2-c1cc(Cl)c(F)cc1F [Example 619] | < 200 | < 500
3 | COc1cc(C(=O)NC[C@](O)(c2cc3c(c(-c4cc(Cl)c(F)cc4F)n2)OC[C@]3(C)C(N)=O)C(F)(F)F)cc2cc(Cl)c(C)nc12 [Example 620] | < 200 | < 500
4 | COc1cc(C(=O)NC[C@](O)(c2cc3c(c(-c4cc(Cl)c(F)cc4F)n2)OC[C@]3(C)C(N)=O)C(F)(F)F)cc2cc(Br)cnc12 [Example 621] | < 200 | < 500
5 | C[C@]1(C(N)=O)COc2c1cc([C@@](O)(CNC(=O)c1cc(Cl)c3nn(C4CC4)cc3c1)C1CC1)nc2-c1csc2c(F)cccc12 [Example 622] | < 200 | < 500
6 | C[C@]1(C(N)=O)COc2c1cc([C@@](O)(CNC(=O)c1ccc(F)c(NC(=O)NC3CC3)c1)C(F)(F)F)nc2-c1ccc(F)cc1 [Example 623] | < 200 | > 500
7 | C[C@]1(C(N)=O)COc2c1cc([C@@](O)(CNC(=O)c1cc(F)c(F)c(NC(=O)NC3CC3)c1)C(F)(F)F)nc2-c1ccc(F)cc1 [Example 624] | < 200 | > 500
8 | COc1ccc(C(=O)NC[C@](O)(c2cc3c(c(-c4ccc(F)cc4)n2)OC[C@]3(C)C(N)=O)C(F)(F)F)cc1NC(=O)NC1CC1 [Example 625] | < 200 | > 500
9 | C[C@]1(C(N)=O)COc2c1cc([C@@](O)(CNC(=O)c1ccc(F)c(NC(=O)NC3CC3)c1)C(F)(F)F)nc2-c1ccc(F)c(Cl)c1 [Example 626] | < 200 | > 500
10 | COc1ccc(C(=O)NC[C@](O)(c2cc3c(c(-c4ccc(F)c(Cl)c4)n2)OC[C@]3(C)C(N)=O)C(F)(F)F)cc1NC(=O)NC1CC1 [Example 627] | < 200 | > 500
11 | C[C@]1(C(N)=O)COc2c1cc([C@@](O)(CNC(=O)c1cc(F)cc(NC(=O)NC3CC3)c1)C(F)(F)F)nc2-c1ccc(F)cc1 [Example 628] | > 200 | > 500
12 | COc1cc(C(=O)NC[C@](O)(c2cc3c(c(-c4ccc(F)c(Cl)c4)n2)OC[C@]3(C)C(N)=O)C2CC2)cc2cc(Cl)c(C)nc12 [Example 633] | < 200 | < 500
13 | COc1cc(C(=O)NC[C@](O)(c2cc3c(c(-c4ccc(F)c(C)c4)n2)OC[C@]3(C)C(N)=O)C(F)(F)F)cc2cn(C3CC3)nc12 [Example 636] | < 200 | < 500
14 | Cc1nc2c(OC3CC3)cc(C(=O)NC[C@](O)(c3cc4c(c(-c5ccc(F)cc5)n3)OC[C@]4(C)C(N)=O)C3CC3)cc2cc1Cl [Example 637] | < 200 | < 500
15 | Cc1nc2c(OC3CC3)cc(C(=O)NC[C@](O)(c3cc4c(c(-c5ccc(F)c(Cl)c5)n3)OC[C@]4(C)C(N)=O)C3CC3)cc2cc1Cl [Example 638] | < 200 | < 500
16 | COc1cc(C(=O)NC[C@](O)(c2cc3c(c(-c4ccc5c(c4)OC(F)(F)O5)n2)OC[C@]3(C)C(N)=O)C(F)(F)F)cn2cc(C3CC3)nc12 [Example 639] | < 200 | < 500
17 | COc1cc(C(=O)NC[C@](O)(c2cc3c(c(-c4ccc5c(c4)OC(F)(F)O5)n2)OC[C@]3(C)C(N)=O)C(F)(F)F)cc2cc(Cl)c(C)nc12 [Example 640] | < 200 | < 500
18 | CC[C@](O)(CNC(=O)c1cc(OC)c2nn(C3CC3)cc2c1)c1cc2c(c(-c3ccc(F)cc3)n1)OC[C@]2(C)C(N)=O [Example 642] | < 200 | > 500
19 | CC[C@](O)(CNC(=O)c1cc(OC)c2nc(C)c(Cl)cc2c1)c1cc2c(c(-c3ccc(F)cc3)n1)OC[C@]2(C)C(N)=O [Example 643] | < 200 | < 500
20 | COc1cc(C(=O)NC[C@](O)(c2cc3c(c(-c4ccc(F)cc4)n2)OC[C@]3(C)C(N)=O)C2CCCC2)cc2cn(C3CC3)nc12 [Example 644] | > 200 | > 500
21 | [2H]C([2H])([2H])[C@](O)(CNC(=O)c1cc(OC)c2nn(C3CC3)cc2c1)c1cc2c(c(-c3ccc(F)cc3)n1)OC[C@]2(C)C(N)=O [Example 645] | < 200 | > 500
22 | [2H]C([2H])([2H])[C@](O)(CNC(=O)c1cc(OC2CC2)c2ncccc2c1)c1cc2c(c(-c3ccc(F)cc3)n1)OC[C@]2(C)C(N)=O [Example 646] | < 200 | > 500

Second part, the molecule after the results:

Row | EC50 [1] [nM] | EC50 [2] [nM] | Compound
23 | < 200 | < 500 | COc1cc(C(=O)NC[C@](O)(c2cc3c(c(-c4csc5c(F)cccc45)n2)OC[C@]3(C)C(N)=O)C2CC2)cc2cc(Cl)c(C)nc12 [Example 595]
24 | < 200 | < 500 | COc1cc(C(=O)NC[C@](O)(c2cc3c(c(-c4csc5c(F)cccc45)n2)OC[C@]3(C)C(N)=O)C(F)(F)F)cc2cc(Cl)c(C)nc12 [Example 596]
25 | < 200 | > 500 | C[C@]1(C(N)=O)COc2c1cc([C@@](O)(CNC(=O)c1cc(OC3CC3)n3nc(C4CC4)cc3c1)C(F)(F)F)nc2-c1csc2c(F)cccc12 [Example 597]
26 | < 200 | < 500 | COc1cc(C(=O)NC[C@](O)(c2cc3c(c(-c4csc5c(F)cccc45)n2)OC[C@]3(C)C(N)=O)C(F)(F)F)cc2cc(C3CC3)nn12 [Example 598]
27 | < 200 | < 500 | COc1cc(C(=O)NC[C@](O)(c2cc3c(c(-c4csc5c(F)cccc45)n2)OC[C@]3(C)C(N)=O)C(F)(F)F)cc2cn(C3(F)CC3)nc12 [Example 599]
28 | < 200 | < 500 | COc1cc(C(=O)NC[C@](O)(c2cc3c(c(-c4csc5c(F)cccc45)n2)OC[C@]3(C)C(N)=O)C(F)(F)F)cc2cn(C(F)F)nc12 [Example 600]
29 | < 200 | < 500 | Cc1cnc2c(Cl)cc(C(=O)NC[C@](O)(c3cc4c(c(-c5csc6c(F)cccc56)n3)OC[C@]4(C)C(N)=O)C(F)(F)F)cc2c1 [Example 601]
30 | < 200 | < 500 | COc1cc(C(=O)NC[C@](O)(c2cc3c(c(-c4csc5c(F)cccc45)n2)OC[C@]3(C)C(N)=O)C(F)(F)F)cc2cc(Br)cnc12 [Example 602]
31 | < 200 | > 500 | Cc1nc2c(OC3CC3)cc(C(=O)NC[C@](O)(c3cc4c(c(-c5csc6c(F)cccc56)n3)OC[C@]4(C)C(N)=O)C(F)(F)F)cc2cc1Cl [Example 603]
32 | < 200 | < 500 | COc1cc(C(=O)NC[C@](O)(c2cc3c(c(-c4csc5c(F)cccc45)n2)OC[C@]3(C)C(N)=O)C2CC2)cc2cn(C3(F)CC3)nc12 [Example 604]
33 | < 200 | < 500 | C[C@]1(C(N)=O)COc2c1cc([C@@](O)(CNC(=O)c1cc(OC3CC3)c3nn(C4(F)CC4)cc3c1)C(F)(F)F)nc2-c1csc2c(F)cccc12 [Example 605]
34 | < 200 | < 500 | C[C@]1(C(N)=O)COc2c1cc([C@@](O)(CNC(=O)c1cc(OC3CC3)c3nn(C(F)F)cc3c1)C(F)(F)F)nc2-c1csc2c(F)cccc12 [Example 606]
35 | < 200 | < 500 | C[C@]1(C(N)=O)COc2c1cc([C@@](O)(CNC(=O)c1cc(OC3CC3)c3nn(C4(F)CC4)cc3c1)C1CC1)nc2-c1csc2c(F)cccc12 [Example 607]
36 | < 200 | < 500 | C[C@]1(C(N)=O)COc2c1cc([C@@](O)(CNC(=O)c1cc(F)c3nn(C4CC4)cc3c1)C1CC1)nc2-c1csc2c(F)cccc12 [Example 608]
37 | < 200 | < 500 | C[C@]1(C(N)=O)COc2c1cc([C@@](O)(CNC(=O)c1cc(Cl)c3nn(C4CC4)cc3c1)C(F)(F)F)nc2-c1csc2c(F)cccc12 [Example 609]
38 | < 200 | < 500 | C[C@]1(C(N)=O)COc2c1cc([C@@](O)(CNC(=O)c1cc(OCC3CC3)c3nn(C4(F)CC4)cc3c1)C(F)(F)F)nc2-c1csc2c(F)cccc12 [Example 610]
39 | < 200 | < 500 | C[C@]1(C(N)=O)COc2c1cc([C@@](O)(CNC(=O)c1cc(OCC(F)F)c3nn(C4(F)CC4)cc3c1)C(F)(F)F)nc2-c1csc2c(F)cccc12 [Example 611]
40 | < 200 | < 500 | C[C@]1(C(N)=O)COc2c1cc([C@@](O)(CNC(=O)c1cc(OCCF)c3nn(C4(F)CC4)cc3c1)C(F)(F)F)nc2-c1csc2c(F)cccc12 [Example 612]
41 | < 200 | < 500 | COc1cc(C(=O)NC[C@](O)(c2cc3c(c(-c4cc(Cl)c(F)cc4F)n2)OC[C@]3(C)C(N)=O)C(F)(F)F)cc2cn(C3(F)CC3)nc12 [Example 613]
42 | < 200 | > 500 | COc1cc(C(=O)NC[C@](O)(c2cc3c(c(-c4cc(Cl)c(F)cc4F)n2)OC[C@]3(C)C(N)=O)C(F)(F)F)cc2cn(C(F)F)nc12 [Example 614]
43 | < 200 | < 500 | C[C@]1(C(N)=O)COc2c1cc([C@@](O)(CNC(=O)c1cc(OC3CC3)c3nn(C4(F)CC4)cc3c1)C(F)(F)F)nc2-c1cc(Cl)c(F)cc1F [Example 615]
44 | < 200 | < 500 | C[C@]1(C(N)=O)COc2c1cc([C@@](O)(CNC(=O)c1cc(OCC3CC3)c3nn(C4(F)CC4)cc3c1)C(F)(F)F)nc2-c1cc(Cl)c(F)cc1F [Example 616]
45 | < 200 | < 500 | C[C@]1(C(N)=O)COc2c1cc([C@@](O)(CNC(=O)c1cc(OCC(F)F)c3nn(C4(F)CC4)cc3c1)C(F)(F)F)nc2-c1cc(Cl)c(F)cc1F [Example 617]
